Measurements published in patent publication US20260184687A1, “DIHYDROINDENE DERIVATIVES AS MALT1 INHIBITORS” (C4X Discovery Limited, priority 2022, published 2026).

Biological target: T1, FL hMALT1 enzyme (Homo sapiens, UniProt Q9UDY8)
T1 sequence (Q9UDY8 1-824): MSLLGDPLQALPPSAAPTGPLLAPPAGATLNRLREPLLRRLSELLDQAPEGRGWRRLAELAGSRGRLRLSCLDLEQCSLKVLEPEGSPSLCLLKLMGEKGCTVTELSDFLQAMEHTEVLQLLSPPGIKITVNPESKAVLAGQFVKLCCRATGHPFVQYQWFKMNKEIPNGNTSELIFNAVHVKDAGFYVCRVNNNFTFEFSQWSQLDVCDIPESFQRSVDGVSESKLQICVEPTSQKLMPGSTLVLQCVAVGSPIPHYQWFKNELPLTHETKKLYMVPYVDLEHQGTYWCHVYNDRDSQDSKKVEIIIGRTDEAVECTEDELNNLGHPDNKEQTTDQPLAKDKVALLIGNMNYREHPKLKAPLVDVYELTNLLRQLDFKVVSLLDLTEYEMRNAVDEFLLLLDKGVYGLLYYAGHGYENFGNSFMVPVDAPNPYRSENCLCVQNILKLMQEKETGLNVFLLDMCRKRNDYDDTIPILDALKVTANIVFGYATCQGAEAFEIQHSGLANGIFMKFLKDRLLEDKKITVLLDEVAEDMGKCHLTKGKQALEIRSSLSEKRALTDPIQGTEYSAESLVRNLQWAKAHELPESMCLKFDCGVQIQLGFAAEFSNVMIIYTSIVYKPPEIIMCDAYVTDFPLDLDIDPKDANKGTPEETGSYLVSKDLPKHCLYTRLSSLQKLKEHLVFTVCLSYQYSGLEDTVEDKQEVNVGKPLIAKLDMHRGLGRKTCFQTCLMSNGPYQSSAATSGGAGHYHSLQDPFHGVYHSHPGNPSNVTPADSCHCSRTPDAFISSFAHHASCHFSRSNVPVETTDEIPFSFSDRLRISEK
Assay: biochemical
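Further: Cell-free protease assay: enzyme preincubated with compound 30 min at room temperature, then cleavage of fluorogenic Ac-LVSR-AMC substrate (100 µM) tracked by fluorescence (ex 360/em 460 nm).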

`CN(C(=O)C1CCS(=O)(=O)CC1)[C@@H](c1ccc(NC2Cc3ccc(F)cc3C2)cn1)C(F)(F)F` (single isomer, unassigned) [Example 259] was tested. Which IC50 did it give?
The IC50 was 180 nM.

For `CN(C(=O)C1CCS(=O)(=O)CC1)[C@@H](c1ccc(NC2Cc3cccc(Cl)c3C2)cn1)C(F)(F)F` (single isomer, unassigned) [Example 264], which IC50 is on record?
The IC50 was 1200 nM.

How did the IC50 turn out when `CN(C(=O)C1CCS(=O)(=O)CC1)[C@@H](c1ccc(NC2Cc3ccc(F)c(Cl)c3C2)cn1)C(F)(F)F` (single isomer, unassigned) [Example 266] was run?
The IC50 was 1600 nM.

For `CN(C(=O)C1CCS(=O)(=O)CC1)[C@@H](c1ccc(NC2Cc3cc(F)cc(F)c3C2)cn1)C(F)(F)F` (single isomer, unassigned) [Example 268], which IC50 is on record?
The IC50 was 3400 nM.

Which IC50 does the source give for `CN(C(=O)C1CCS(=O)(=O)CC1)[C@@H](c1ccc(NC2Cc3cc(F)cc(F)c3C2)cn1)C(F)(F)F` (single isomer, unassigned) [Example 269] here?
The IC50 was 150 nM.

`CN(C(=O)C1CCS(=O)(=O)CC1)[C@@H](c1ccc(NC2Cc3cc(Cl)cc(F)c3C2)cn1)C(F)(F)F` (single isomer, unassigned) [Example 271] was tested. Which IC50 did it give?
The IC50 was 3300 nM.

`CN(C(=O)C1CCS(=O)(=O)CC1)[C@@H](c1ccc(NC2Cc3cccc(F)c3C2)cn1)C(F)(F)F` (single isomer, unassigned) [Example 274] was tested. Which IC50 did it give?
Its IC50 is 280 nM.

How did the IC50 turn out when `CN(C(=O)C1CCS(=O)(=O)CC1)[C@@H](c1ccc(NC2Cc3cccc(F)c3C2)cn1)C(F)(F)F` (single isomer, unassigned) [Example 275] was run?
Its IC50 is 520 nM.

With `CN(C(=O)C1CCS(=O)(=O)CC1)[C@@H](c1ccc(NC2Cc3ccc(Cl)c(F)c3C2)cn1)C(F)(F)F` (single isomer, unassigned) [Example 276] as the molecule, how does the IC50 read?
The IC50 was 780 nM.

For `CN(C(=O)C1CCS(=O)(=O)CC1)[C@@H](c1ccc(NC2Cc3ccc(Cl)c(Cl)c3C2)cn1)C(F)(F)F` (single isomer, unassigned) [Example 278], which IC50 is on record?
Its IC50 is 350 nM.

`CN(C(=O)C1CCS(=O)(=O)CC1)[C@@H](c1ccc(NC2Cc3cccc(C(F)(F)F)c3C2)nc1)C(F)(F)F` (single isomer, unassigned) [Example 280] was tested. Which IC50 did it give?
The IC50 was 860 nM.

For `CN(C(=O)C1CCS(=O)(=O)CC1)[C@@H](c1ccc(NC2Cc3cc(Cl)cc(Cl)c3C2)cn1)C(F)(F)F` (single isomer, unassigned) [Example 282], which IC50 is on record?
Its IC50 is 340 nM.

With `CN(C(=O)C1CCS(=O)(=O)CC1)[C@@H](c1ccc(NC2Cc3cc(Cl)cc(Cl)c3C2)cn1)C(F)(F)F` (single isomer, unassigned) [Example 283] as the molecule, how does the IC50 read?
Its IC50 is 910 nM.

How did the IC50 turn out when `CN(C(=O)C1CCS(=O)(=O)CC1)[C@@H](c1ccc(NC2Cc3ccc(Br)cc3C2)cn1)C(F)(F)F` (single isomer, unassigned) [Example 285] was run?
The IC50 was 690 nM.

For `CN(C(=O)C1CCS(=O)(=O)CC1)[C@@H](c1ccc(NC2Cc3cc(F)cc(Cl)c3C2)cn1)C(F)(F)F` (single isomer, unassigned) [Example 286], which IC50 is on record?
Its IC50 is 730 nM.

With `CN(C(=O)C1CCS(=O)(=O)CC1)[C@@H](c1ccc(NC2Cc3cc(F)cc(Cl)c3C2)cn1)C(F)(F)F` (single isomer, unassigned) [Example 287] as the molecule, how does the IC50 read?
Its IC50 is 290 nM.

How did the IC50 turn out when `CN(C(=O)C1CCS(=O)(=O)CC1)[C@@H](c1ccc(NC2Cc3ccc(Cl)cc3C2)nc1)C(F)(F)F` (single isomer, unassigned) [Example 288] was run?
The IC50 was 1640 nM.

Which IC50 does the source give for `CN(C(=O)C1CCS(=O)(=O)CC1)[C@@H](c1ccc(NC2Cc3c(F)ccc(Cl)c3C2)cn1)C(F)(F)F` (single isomer, unassigned) [Example 294] here?
Its IC50 is 2400 nM.

Which IC50 does the source give for `CN(C(=O)C1CCS(=O)(=O)CC1)[C@@H](c1ccc(NC2Cc3cc(F)c(F)c(F)c3C2)cn1)C(F)(F)F` (single isomer, unassigned) [Example 295] here?
Its IC50 is 1900 nM.

With `CN(C(=O)C1CCS(=O)(=O)CC1)[C@@H](c1ccc(NC2Cc3cc(F)c(F)c(F)c3C2)cn1)C(F)(F)F` (single isomer, unassigned) [Example 296] as the molecule, how does the IC50 read?
Its IC50 is 1400 nM.

`CN(C(=O)C1CCS(=O)(=O)CC1)[C@@H](c1ccc(NC2Cc3ccc(Cl)c(C4CC4)c3C2)cn1)C(F)(F)F` (single isomer, unassigned) [Example 305] was tested. Which IC50 did it give?
Its IC50 is 300 nM.

With `CN(C(=O)C1CCS(=O)(=O)CC1)[C@@H](c1ccc(NC2Cc3ccc(C4CC4)cc3C2)cn1)C(F)(F)F` (single isomer, unassigned) [Example 307] as the molecule, how does the IC50 read?
The IC50 was 220 nM.

`CN(C(=O)C1CCS(=O)(=O)CC1)[C@@H](c1ccc(NC2Cc3ccc(C4CC4)cc3C2)cn1)C(F)(F)F` (single isomer, unassigned) [Example 308] was tested. Which IC50 did it give?
Its IC50 is 1400 nM.

How did the IC50 turn out when `CN(C(=O)C1CCS(=O)(=O)CC1)[C@@H](c1ccc(NC2Cc3ccc(Cl)c(C(F)(F)F)c3C2)cn1)C(F)(F)F` (single isomer, unassigned) [Example 311] was run?
The IC50 was 300 nM.

How did the IC50 turn out when `CN(C(=O)C1CCNC(=O)C1)[C@@H](c1ccc(N[C@H]2Cc3ccc(Cl)cc3C2)cn1)C(F)(F)F` (single isomer, unassigned) [Example 313] was run?
The IC50 was 190 nM.

`CN(C(=O)[C@@H]1CNC(=O)C1)[C@@H](c1ccc(N[C@H]2Cc3ccc(Cl)c(F)c3C2)cn1)C(F)(F)F` (single isomer, unassigned) [Example 316] was tested. Which IC50 did it give?
The IC50 was 1100 nM.

Which IC50 does the source give for `CN(C(=O)[C@@H]1CNC(=O)C1)[C@@H](c1ccc(NC2Cc3ccc(Cl)c(Cl)c3C2)cn1)C(F)(F)F` (single isomer, unassigned) [Example 318] here?
Its IC50 is 660 nM.

`CN(C(=O)[C@H]1CCC(=O)NC1)[C@@H](c1ccc(NC2Cc3ccc(Cl)c(Cl)c3C2)cn1)C(F)(F)F` (single isomer, unassigned) [Example 320] was tested. Which IC50 did it give?
Its IC50 is 750 nM.

For `CN(C(=O)C12CC(NS(C)(=O)=O)(C1)C2)[C@@H](c1ccc(NC2Cc3ccc(Cl)c(Cl)c3C2)cn1)C(F)(F)F` (single isomer, unassigned) [Example 322], which IC50 is on record?
The IC50 was 310 nM.

How did the IC50 turn out when `CN(C(=O)C1CCN(S(C)(=O)=O)CC1)[C@@H](c1ccc(NC2Cc3ccc(Cl)c(Cl)c3C2)cn1)C(F)(F)F` (single isomer, unassigned) [Example 326] was run?
Its IC50 is 240 nM.

For `CN(C(=O)[C@@H]1CNC(=O)C1)[C@@H](c1ccc(NC2Cc3ccc(Cl)c(C4CC4)c3C2)cn1)C(F)(F)F` (single isomer, unassigned) [Example 327], which IC50 is on record?
Its IC50 is 570 nM.

Which IC50 does the source give for `CN(C(=O)[C@H]1CCC(=O)NC1)[C@@H](c1ccc(NC2Cc3ccc(Cl)c(C4CC4)c3C2)cn1)C(F)(F)F` (single isomer, unassigned) [Example 329] here?
Its IC50 is 680 nM.

For `CN(C(=O)C1CCS(=O)(=O)CC1)[C@@H](c1ccc(NC2Cc3ccc(Cl)c(F)c3C2)nc1)C(F)(F)F` (single isomer, unassigned) [Example 331], which IC50 is on record?
The IC50 was 400 nM.

Which IC50 does the source give for `CNC(=O)N1CC(C(=O)N(C)[C@@H](c2ccc(NC3Cc4ccc(Cl)c(Cl)c4C3)cn2)C(F)(F)F)C1` (single isomer, unassigned) [Example 334] here?
Its IC50 is 300 nM.

For `CN(C(=O)[C@H]1CCC(=O)NC1)[C@@H](c1ccc(NC2Cc3ccc(Cl)c(F)c3C2)cn1)C(F)(F)F` (single isomer, unassigned) [Example 336], which IC50 is on record?
Its IC50 is 690 nM.

Which IC50 does the source give for `CN(C(=O)[C@H]1CNC(=O)C1)[C@@H](c1ccc(NC2Cc3ccc(Cl)c(F)c3C2)nc1)C(F)(F)F` (single isomer, unassigned) [Example 338] here?
The IC50 was 960 nM.

`CN(C(=O)C1CC2(CCC(=O)N2)C1)[C@@H](c1ccc(NC2Cc3ccc(Cl)c(Cl)c3C2)cn1)C(F)(F)F` (single isomer, unassigned) [Example 340] was tested. Which IC50 did it give?
Its IC50 is 560 nM.
